Results from publication PMC5442318, “Hundreds of dual-stage antimalarial molecules discovered by a functional gametocyte screen” (Nature Communications, 2017).
Like-named read-outs stand apart in the source and are kept apart here.

Key:
[1] = test system: P. falciparum asexual blood stages; details: ref 1 (Gamo, F. J. et al., Nature 465, 305-310, 2010), cited from earlier work; for IC50: TCAMS asexual blood stage data, read-out: Pf Asexual blood stages XC50; for Pf Asexual stages XC50: TCAMS data
[2] = test system: P. falciparum stages IV–V gametocytes; test: Gametocytocidal ATP-depletion assay (gametocyte ATP bioluminescence); assay type: cell-based, Plasmodium falciparum; details: for inhibition at 2 µM: Plasmodium falciparum, mean
Summary of the method: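 Purified stage IV–V gametocytes (12,500/well) incubated with compound for 48 h at 37 °C under 3% O2/5% CO2. ATP measured by BacTiter-Glo luminescence as a viability surrogate; hits tested at 2 μM single concentration.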

[3] = test system: HepG2 cells; test: HepG2 cytotoxicity assay; assay type: cell-based
Summary of the method: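 Post-incubation CellTiter-Glo luminescence; 30 min RT equilibration, 10 min RT stabilization before reading.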

[4] = test system: P. falciparum female gametes; test: Pf FGAA with compounds added 30 min after triggering gametocyte activation (gamete-targeting); assay type: cell-based, Plasmodium falciparum NF54; details: 0h incubation time
[5] = test system: P. falciparum stage V female gametocytes; test: P. falciparum female gametocyte activation assay (Pf FGAA), 24 h or 48 h preincubation, Pfs25 expression readout; assay type: cell-based, Plasmodium falciparum NF54; details: for Pf FGAA classification: SLOW / FAST / GAMETE from activity at 48h, 24h, 0h incubation
Summary of the method: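 Purified stage V gametocytes from P. falciparum NF54 gametocyte cultures were exposed to compounds for 24 h or 48 h at 37 °C under 3% O2/5% CO2, then activated by temperature drop plus xanthurenic acid. Activated females were stained with Cy3-anti-Pfs25 (0.5 μg ml^−1) for 24 h at 26 °C and counted by high-content imaging; pIC50 by nonlinear regression.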

[6] = HepG2 TOX50 versus Pf FGAA IC50
[7] = Plasmodium falciparum, 24h incubation time, read-out: Pf FGAA IC50 (µM) 24h
[8] = Plasmodium falciparum, P. falciparum female gametocytes, mean, read-out: Gametocytes mean Pf FGAA IC50
[9] = 24h incubation time, read-out: Pf FGAA IC50 (µM) 24h
[10] = P. falciparum female gametocytes, mean, read-out: Gametocytes mean Pf FGAA IC50
[11] = mean, P. falciparum female gametocyte activation assay, read-out: Gametocytes mean Pf FGAA IC50

CCCC(=O)NC(c1ccc(C)cc1)c1ccc2cccnc2c1O (centres unmarked) [TCMDC-123605]
IC50 [1]: 960 nM
Pf Asexual stages XC50 [1]: 0.96 µM
inhibition at 2 µM [2]: 20.2%
Selectivity ratio [3, 6]: 5.32
HepG2 cells mean TOX50 ([3]; HepG2 cells; mean): 9.22 µM
IC50 ([4]; Plasmodium falciparum): 3.99 µM
IC50 [5, 7]: 1 µM
IC50 [5, 8]: 1.73 µM
Pf FGAA classification [5]: FAST

N#CC(c1ccc(Br)cc1)c1ccc2c(C(F)(F)F)cc(C(F)(F)F)nc2n1 (centres unmarked) [TCMDC-123754]
IC50 [1]: 440 nM
Pf Asexual stages XC50 [1]: 0.44 µM
inhibition at 2 µM [2]: -2.55%
Selectivity ratio [3, 6]: 2.01
HepG2 cells mean TOX50 ([3]; HepG2 cells; mean): 2.32 µM
IC50 ([4]; Plasmodium falciparum): > 20 µM
IC50 [5, 7]: > 20 µM
IC50 [5, 8]: 1.16 µM
Pf FGAA classification [5]: SLOW

Clc1ccc(-c2csc3ncnc(Cl)c23)cc1 [TCMDC-123811]
IC50 [1]: 460 nM
Pf Asexual stages XC50 [1]: 0.46 µM
Gametocytes mean ATP inhibition at 2µM [2]: -1.98%
HepG2 cells mean TOX50 ([3]; HepG2 cells; mean): 94.46 µM
IC50 [4]: > 20 µM
IC50 [5, 9]: 3.25 µM
IC50 [5, 10]: 1.57 µM
Pf FGAA classification [5]: SLOW

O=C(Nc1nc(-c2ccccn2)cs1)c1ccc(Br)s1 [TCMDC-123868]
IC50 [1]: 1060 nM
Pf Asexual stages XC50 [1]: 1.06 µM
Gametocytes mean ATP inhibition at 2µM [2]: 29.36%
HepG2 cells mean TOX50 ([3]; HepG2 cells; mean): 37.44 µM
IC50 [4]: 2.14 µM
IC50 [5, 9]: 0.14 µM
IC50 [5, 10]: 1.16 µM
Pf FGAA classification [5]: GAMETE

CCOc1ccc(-n2nc3c(Cl)nnc(-c4ccccc4)c3c2-c2ccccc2)cc1 [TCMDC-123899]
IC50 [1]: 230 nM
Pf Asexual stages XC50 [1]: 0.31 µM
Gametocytes mean ATP inhibition at 2µM [2]: -0.60%
HepG2 cells TOX50 ([3]; HepG2 cells): >100 µM
HepG2 cells mean TOX50 ([3]; HepG2 cells; mean): >100 µM
IC50 [4]: > 20 µM
IC50 [5, 9]: > 20 µM
IC50 [5, 10]: 0.94 µM
Pf FGAA classification [5]: SLOW

CCc1cc2c(Sc3nnc(N)s3)ncnc2s1 [TCMDC-123993]
IC50 [1]: 660 nM
Pf Asexual stages XC50 [1]: 0.66 µM
Gametocytes mean ATP inhibition at 2µM [2]: 23.86%
HepG2 cells mean TOX50 ([3]; HepG2 cells; mean): 32.30 µM
IC50 [4]: > 20 µM
IC50 [5, 9]: 0.77 µM
IC50 [5, 10]: 0.73 µM
Pf FGAA classification [5]: FAST

Cc1ccc(Cl)c2sc(N3CCN(C(=O)c4ccc([N+](=O)[O-])o4)CC3)nc12 [TCMDC-124311]
IC50 [1]: 320 nM
Pf Asexual stages XC50 [1]: 0.32 µM
Gametocytes mean ATP inhibition at 2µM [2]: -39.73%
HepG2 cells mean TOX50 ([3]; HepG2 cells; mean): 25.79 µM
IC50 [4]: > 20 µM
IC50 [5, 9]: 1.5 µM
IC50 [5, 10]: 1.44 µM
Pf FGAA classification [5]: FAST

Cc1ccc(C)c2sc(N3CCN(C(=O)c4ccc([N+](=O)[O-])o4)CC3)nc12 [TCMDC-124315]
IC50 [1]: 820 nM
Pf Asexual stages XC50 [1]: 0.82 µM
Gametocytes mean ATP inhibition at 2µM [2]: 3.06%
HepG2 cells mean TOX50 ([3]; HepG2 cells; mean): 37.65 µM
IC50 [4]: > 20 µM
IC50 [5, 9]: 2.82 µM
IC50 [5, 10]: 1.12 µM
Pf FGAA classification [5]: SLOW

O=C(c1ccc([N+](=O)[O-])o1)N1CCN(c2nc3c(Cl)cccc3s2)CC1 [TCMDC-124316]
IC50 [1]: 980 nM
Pf Asexual stages XC50 [1]: 0.98 µM
inhibition at 2 µM [2]: 0.49%
Selectivity ratio [3, 6]: 38.14
HepG2 cells mean TOX50 ([3]; HepG2 cells; mean): 41.96 µM
IC50 ([4]; Plasmodium falciparum): > 20 µM
IC50 [5, 7]: 1.38 µM
IC50 [5, 8]: 1.1 µM
Pf FGAA classification [5]: FAST

O=C(Nc1ccc([N+](=O)[O-])cc1)Nc1cc(OCC(F)(F)F)cc(OCC(F)(F)F)c1 [TCMDC-124533]
IC50 [1]: 470 nM
Pf Asexual stages XC50 [1]: 0.47 µM
inhibition at 2 µM [2]: -45.2%
Selectivity ratio [3, 6]: 5.40
HepG2 cells mean TOX50 ([3]; HepG2 cells; mean): 6.24 µM
IC50 ([4]; Plasmodium falciparum): 5.64 µM
IC50 [5, 7]: 2.32 µM
IC50 [5, 8]: 1.16 µM
Pf FGAA classification [5]: SLOW

c1ccn2c(Sc3ncnc4sccc34)ncc2c1 [TCMDC-124602]
IC50 [1]: 660 nM
Pf Asexual stages XC50 [1]: 0.66 µM
Gametocytes mean ATP inhibition at 2µM [2]: 12.16%
HepG2 cells TOX50 ([3]; HepG2 cells): >100 µM
HepG2 cells mean TOX50 ([3]; HepG2 cells; mean): >100 µM
IC50 [4]: 14.4 µM
IC50 [5, 9]: > 20 µM
IC50 [5, 10]: 0.24 µM
Pf FGAA classification [5]: SLOW

CN1CCN(c2ccc(Nc3ncc([N+](=O)[O-])c(Nc4ccccc4O)n3)cc2)CC1.O=C(O)C(F)(F)F [TCMDC-141372]
IC50 [1]: 720 nM
Gametocytes mean ATP inhibition at 2µM [2]: -21.03%
HepG2 cells mean TOX50 ([3]; mean; HepG2 cells): 1.82 µM
IC50 [5, 11]: 2.01 µM

ON=C1CCc2cc(-c3cc(-c4ccc(OC5CCNCC5)cc4)oc3-c3ccncc3)ccc21 [TCMDC-141381]
IC50 [1]: 160 nM
Gametocytes mean ATP inhibition at 2µM [2]: 40.68%
HepG2 cells mean TOX50 ([3]; mean; HepG2 cells): 5.01 µM
IC50 [5, 11]: 0.2 µM

O=C(Nc1ccc(Cl)cc1)c1cc(Cl)cc2nc(C(F)(F)F)[nH]c12 [TCMDC-141586]
IC50 [1]: 130 nM
Gametocytes mean ATP inhibition at 2µM [2]: 39.06%
HepG2 cells mean TOX50 ([3]; mean; HepG2 cells): 2.82 µM
IC50 [5, 11]: 1.7 µM

CN1CCCC1CCNc1ncc2c(-c3ccc(NC(=O)Nc4cc(C(F)(F)F)ccc4F)c(F)c3)nn(C)c2n1.O=C(O)C(F)(F)F (centres unmarked) [TCMDC-141610]
IC50 [1]: 290 nM
Gametocytes mean ATP inhibition at 2µM [2]: -9.33%
HepG2 cells mean TOX50 ([3]; mean; HepG2 cells): 4.62 µM
IC50 [5, 11]: 1.47 µM
